Experimental data published in patent publication US20230053119A1, “FUSION POLYPEPTIDE COMPRISING Fc REGION OF IMMUNOGLOBULIN AND GDF15” (LG CHEM, LTD., priority 2019, published 2023).

Tests used:
Format in all cases: in vivo
[1] = system: DIO mouse model (C57BL/6J-DIO); test: Weight change in DIO mice after HIgG1-GDF(CRL) / IgG1-GDF(CRL) administration; settings: for Body Weight, Mean: 2.86 nmol/kg s.c. Daily Inj. for 5 days
Description: (§1) The pharmacological effect of the fusion polypeptide produced and purified in Example 1 was tested in mice (C57BL/6J, 6 weeks, male, 100 mice; RaonBio).
(§2) All the control material and test materials were administered subcutaneously. The administration route of the control material and test materials was selected as a subcutaneous route depending on the clinical intended route of administration.
The dose of all the control material and test materials was 5 mL/kg, and the dose by individual was calculated on the basis of the recently measured weight, […] (1 mL). […] For comparison, the control group in which the control material GDF15 was prepared, and for the comparison group in which GDF15 was administered, they were administered once a day for 5 days, 5 times in total, and all administrations were progressed from 9 AM.
The weight of each mouse was measured at the day of the start of administration of the test materials (before administration), and then the weight was measured every day (measured by 9 days at maximum). The dose of the test materials was determined on the basis of the most recently measured weight.

[2] = system: DIO mouse model (C57BL/6J-DIO); test: Feed intake in DIO mice after HIgG1-GDF(CRL) / IgG1-GDF(CRL) administration; settings: 2.86 nmol/kg s.c. Daily Inj. for 5 days
Description: as §1, §2
The dose of all the control material and test materials was 5 mL/kg, and the dose by individual was calculated on the basis of the recently measured weight, and they were administered subcutaneously once at the test start day using a disposable syringe (1 mL). […] For comparison, the control group in which the control material GDF15 was prepared, and for the comparison group in which GDF15 was administered, they were administered once a day for 5 days, 5 times in total, and all administrations were progressed from 9 AM.
(§3) In addition, after administering the test materials to mice, the feed intake was measured every day, and the amount of feeding was measured using an electronic scale by each breeding box, and then the residual amount was measured to calculate the feed intake a day. Individuals who severely ate the feed were excluded from the measurement.

[3] = Pharmacodynamic (PK) test in SD rat, serum concentration by Human GDF15 ELISA; settings: 2 mg/kg subcutaneous
Description: For evaluation of pharmacodynamic characteristics when each polypeptide was subcutaneously administered to rats, polypeptide IgG4-GDF or IgG4-GDF(CRL) was subcutaneously administered in an amount of 2 mg/kg, respectively, to SD Rat (Koatech, male, 7 weeks, about 250g; n=3 each; test group), and at a fixed time, blood was collected about […] through a caudal vein. Blood collecting was progressed before administration of the fusion polypeptide, in 1, 2, 4, 8, 24, 48, 72, 96, 168, 240 and 336 hours after administration. As a control group for comparison of pharmacodynamic characteristics, GDF15 (R&D Systems) was subcutaneously administered in an amount of 2 mg/kg by the same method as above to prepare GDF15 administration group.
After administering to SD Rat as above, blood collected by time-point was centrifuged to obtain serum, and ELISA was performed using Human GDF15 Immunoassay (SGD150, R&D Systems), to measure the concentration in serum over time for each polypeptide.

[4] = system: DIO mouse model (C57BL/6J-DIO); test: Weight change in DIO mice after IgG4-GDF / IgG4-GDF(CRL) administration; settings: for Body Weight, Mean: 3 nmol/kg s.c. Daily Inj.
Description: as §1
The test materials (IgG4-GDF ? GDF IgG4-GDF(CRL)) and control material
(§4) Semaglutide (Bachem) were subcutaneously administered. The dose of all the control material and test materials was 5 mL/kg, and the dose by individual was calculated on the basis of the recently measured weight, […] (1 mL). […] For a comparison group in which Semaglutide was administered, Semaglutide were administered every day once a day. All administrations were progressed from 9 AM.
The weight of each mouse was measured at the day of the start of administration of the test materials (before administration), and then the weight was measured every day (measured by 19 days at maximum). The dose of the test materials was determined on the basis of the most recently measured weight.

[5] = system: DIO mouse model (C57BL/6J-DIO); test: Feed intake in DIO mice after IgG4-GDF / IgG4-GDF(CRL) administration; settings: 3 nmol/kg s.c. Daily Inj.
Description: as §1, §4, §3

GDF15: control material GDF15 (R&D Systems), Growth/differentiation factor 15 not fused with Fc
Body Weight, Mean ([1]; Day 0): 100 % of initial | Body Weight, Mean ([1]; Day 1): 99 % of initial | Body Weight, Mean ([1]; Day 2): 98 % of initial | Body Weight, Mean ([1]; Day 3): 97 % of initial | Body Weight, Mean ([1]; Day 4): 96 % of initial | Body Weight, Mean ([1]; Day 5): 95 % of initial | Body Weight, Mean ([1]; Day 6): 95 % of initial | Body Weight, Mean ([1]; Day 7): 95 % of initial | Body Weight, Mean ([1]; Day 8): 96 % of initial | Body Weight, Mean ([1]; Day 9): 97 % of initial | weight loss effect (in words) ([1]; daily administration, stopping administration from Day 5): weight loss effect disappeared from Day 6 | Feed intake a day, Mean ([2]; Day 0): 2.8 | Feed intake a day, Mean ([2]; Day 1): 2.4 | Feed intake a day, Mean ([2]; Day 2): 2.7 | Feed intake a day, Mean ([2]; Day 3): 2.4 | Feed intake a day, Mean ([2]; Day 4): 2.5 | Feed intake a day, Mean ([2]; Day 5): 2.6 | Feed intake a day, Mean ([2]; Day 6): 2.7 | Feed intake a day, Mean ([2]; Day 7): 3.0 | Feed intake a day, Mean ([2]; Day 8): 3.3 | Feed intake a day, Mean ([2]; Day 9): 3.5 | AUCextp ([3]; [(AUCinf − AUClast)/AUCinf]*100): 0.463% | AUClast ([3]; serum): 4860 ng·h/mL | Cmax (maximum blood concentration) ([3]; serum): 443 ng/mL | Tmax (time to reach maximum blood concentration) ([3]; serum): 1 h | half-life ([3]; serum): 19 h | t1/2 (elimination half-life) ([3]; serum): 19.0 h | AUCinf ([3]; serum, extrapolated to infinite time): 4880 ng·h/mL

Semaglutide [reference compound]
Body Weight, Mean ([4]; Day 0): 100 % of initial | Body Weight, Mean ([4]; Day 1): 94 % of initial | Body Weight, Mean ([4]; Day 2): 91 % of initial | Body Weight, Mean ([4]; Day 3): 90 % of initial | Body Weight, Mean ([4]; Day 4): 87 % of initial | Body Weight, Mean ([4]; Day 5): 87 % of initial | Body Weight, Mean ([4]; Day 6): 85 % of initial | Body Weight, Mean ([4]; Day 7): 86 % of initial | Body Weight, Mean ([4]; Day 8): 83 % of initial | Body Weight, Mean ([4]; Day 9): 85 % of initial | Body Weight, Mean ([4]; Day 10): 84 % of initial | Body Weight, Mean ([4]; Day 11): 82 % of initial | Body Weight, Mean ([4]; Day 12): 81 % of initial | Body Weight, Mean ([4]; Day 13): 82 % of initial | Body Weight, Mean ([4]; Day 14): 81 % of initial | Body Weight, Mean ([4]; Day 15): 79 % of initial | Body Weight, Mean ([4]; Day 16): 79 % of initial | Body Weight, Mean ([4]; Day 17): 78 % of initial | Body Weight, Mean ([4]; Day 18): 77 % of initial | Body Weight, Mean ([4]; Day 19): 77 % of initial | weight loss (in words) ([4]; daily administration): weight loss was consistent | Feed intake a day, Mean ([5]; Day 0): 3.7 | Feed intake a day, Mean ([5]; Day 1): 2.1 | Feed intake a day, Mean ([5]; Day 2): 3.3 | Feed intake a day, Mean ([5]; Day 3): 2.8 | Feed intake a day, Mean ([5]; Day 4): 2.3 | Feed intake a day, Mean ([5]; Day 5): 2.9 | Feed intake a day, Mean ([5]; Day 6): 2.7 | Feed intake a day, Mean ([5]; Day 7): 3.2 | Feed intake a day, Mean ([5]; Day 8): 2.4 | Feed intake a day, Mean ([5]; Day 9): 3.7 | Feed intake a day, Mean ([5]; Day 10): 2.7 | Feed intake a day, Mean ([5]; Day 11): 2.5 | Feed intake a day, Mean ([5]; Day 12): 2.4 | Feed intake a day, Mean ([5]; Day 13): 3.0 | Feed intake a day, Mean ([5]; Day 14): 2.5 | Feed intake a day, Mean ([5]; Day 15): 2.1 | Feed intake a day, Mean ([5]; Day 16): 2.5 | Feed intake a day, Mean ([5]; Day 17): 2.0 | Feed intake a day, Mean ([5]; Day 18): 2.2 | Feed intake a day, Mean ([5]; Day 19): 3.7
